# Experimental data: ChEMBL document CHEMBL3885881, “DrugMatrix”
# “And” between values parts separate entries of the source, which are not always exact repeats. Equal values may be shown once.
# Species on record: Rattus norvegicus
# Assay: DrugMatrix - Regimen: Daily Repeat
# Format: toxicity, organism-based, Sprague-Dawley
# Set-up: regimen Daily Repeat, gender Male, age 6-8 weeks
# Conditions: in vivo, ip, route intraperitoneal, vehicle 100 % SALINE; for ABSOLUTE BASOPHIL / ABSOLUTE LYMPHOCYTE / ABSOLUTE MONOCYTE / ABSOLUTE SEGMENTED NEUTROPHIL / BASOPHIL / EOSINOPHIL / ERYTHROCYTE COUNT / HEMATOCRIT / HEMOGLOBIN / LEUKOCYTE COUNT / LYMPHOCYTE / MEAN CORPUSCULAR HEMOGLOBIN / MEAN CORPUSCULAR HEMOGLOBIN CONCENTRATION / MEAN CORPUSCULAR VOLUME / MONOCYTE / NEUTROPHIL / NUCLEATED RED BLOOD CELLS / PLATELET COUNT / ABSOLUTE EOSINOPHIL: tissue Blood; for ALANINE AMINOTRANSFERASE / ALBUMIN / ALKALINE PHOSPHATASE / ASPARTATE AMINOTRANSFERASE / BLOOD UREA NITROGEN / CARBON DIOXIDE / CHLORIDE / CHOLESTEROL / CREATINE PHOSPHOKINASE / CREATININE / GLUCOSE / LACTATE DEHYDROGENASE / LIPASE / PHOSPHORUS / POTASSIUM / SODIUM / TOTAL BILIRUBIN / TOTAL PROTEIN / URIC ACID: tissue Plasma
# [1] = 0 mg/kg, 72 h, dose level Control, time 3 day
# [2] = 0 mg/kg, 120 h, dose level Control, time 5 day
# [3] = 0 mg/kg, […], dose level Control, time 7 day
# [4] = 16 mg/kg, 72 h, dose level Low, time 3 day
# [5] = 16 mg/kg, […], dose level Low, time 7 day
structure (smiles),measurement,setting,value
C=CCO [ALLYL ALCOHOL],ABSOLUTE BASOPHIL,[1],0 CELLS/uL
same,ABSOLUTE LYMPHOCYTE,[1],13949.83 CELLS/uL and 6988.5 CELLS/uL
same,ABSOLUTE MONOCYTE,[1],176.17 CELLS/uL and 88 CELLS/uL
same,ABSOLUTE SEGMENTED NEUTROPHIL,[1],1407.33 CELLS/uL and 1041.83 CELLS/uL
same,BASOPHIL,[1],0%
same,EOSINOPHIL,[1],0% and 0.17%
same,ERYTHROCYTE COUNT,[1],5.29 x10E6/uL and 5.73 x10E6/uL
same,HEMATOCRIT,[1],33.5% and 35.87%
same,HEMOGLOBIN,[1],13.47 G/DL and 13.27 G/DL
same,LEUKOCYTE COUNT,[1],15.53 x10E3/uL and 8.13 x10E3/uL
same,LYMPHOCYTE,[1],89.5% and 85.83%
same,MEAN CORPUSCULAR HEMOGLOBIN,[1],25.5 pg and 23.2 pg
same,MEAN CORPUSCULAR HEMOGLOBIN CONCENTRATION,[1],40.27 G/DL and 37 G/DL
same,MEAN CORPUSCULAR VOLUME,[1],63.33 fL and 62.63 fL
same,MONOCYTE,[1],1.17%
same,NEUTROPHIL,[1],9.33% and 12.83%
same,NUCLEATED RED BLOOD CELLS,[1],0 /100WBC
same,PLATELET COUNT,[1],1100 x10E3/uL and 1294.17 x10E3/uL
same,ALANINE AMINOTRANSFERASE,[1],41.5 u/L and 49.17 u/L
same,ALBUMIN,[1],3.78 G/DL and 4.35 G/DL
same,ALKALINE PHOSPHATASE,[1],267.5 u/L and 415.17 u/L
same,ASPARTATE AMINOTRANSFERASE,[1],77.67 u/L and 88.5 u/L
same,BLOOD UREA NITROGEN,[1],13.67 mg/dL and 14.33 mg/dL
same,CARBON DIOXIDE,[1],28.17 mmol/L and 34.83 mmol/L
same,CHLORIDE,[1],100.67 MEQ/L and 98.5 MEQ/L
same,CHOLESTEROL,[1],70.67 mg/dL and 75.83 mg/dL
same,CREATINE PHOSPHOKINASE,[1],341.83 u/L and 271.83 u/L
same,CREATININE,[1],0.15 mg/dL and 0.19 mg/dL
same,GLUCOSE,[1],169 mg/dL and 148.17 mg/dL
same,LACTATE DEHYDROGENASE,[1],138.5 u/L and 166.33 u/L
same,LIPASE,[1],10.33 u/L and 9.2 u/L
same,PHOSPHORUS,[1],9.6 mg/dL and 10.37 mg/dL
same,POTASSIUM,[1],5.69 MEQ/L and 6.16 MEQ/L
same,SODIUM,[1],140.88 MEQ/L and 143.75 MEQ/L
same,TOTAL BILIRUBIN,[1],0.2 mg/dL and 0.18 mg/dL
same,TOTAL PROTEIN,[1],5.95 G/DL and 6.22 G/DL
same,URIC ACID,[1],1.18 mg/dL and 0.92 mg/dL
same,ABSOLUTE BASOPHIL,[2],0 CELLS/uL
same,ABSOLUTE EOSINOPHIL,[2],9.17 CELLS/uL
same,ABSOLUTE LYMPHOCYTE,[2],6359.17 CELLS/uL
same,ABSOLUTE MONOCYTE,[2],87.33 CELLS/uL
same,ABSOLUTE SEGMENTED NEUTROPHIL,[2],894.33 CELLS/uL
same,BASOPHIL,[2],0%
same,EOSINOPHIL,[2],0.17%
same,ERYTHROCYTE COUNT,[2],5.68 x10E6/uL
same,HEMATOCRIT,[2],35.05%
same,HEMOGLOBIN,[2],13.22 G/DL
same,LEUKOCYTE COUNT,[2],7.35 x10E3/uL
same,LYMPHOCYTE,[2],86.33%
same,MEAN CORPUSCULAR HEMOGLOBIN,[2],23.32 pg
same,MEAN CORPUSCULAR HEMOGLOBIN CONCENTRATION,[2],37.72 G/DL
same,MEAN CORPUSCULAR VOLUME,[2],61.82 fL
same,MONOCYTE,[2],1.17%
same,NEUTROPHIL,[2],12.33%
same,NUCLEATED RED BLOOD CELLS,[2],0 /100WBC
same,PLATELET COUNT,[2],1231 x10E3/uL
same,ALANINE AMINOTRANSFERASE,[2],44.5 u/L
same,ALBUMIN,[2],4.47 G/DL
same,ALKALINE PHOSPHATASE,[2],372.33 u/L
same,ASPARTATE AMINOTRANSFERASE,[2],88.67 u/L
same,BLOOD UREA NITROGEN,[2],14.67 mg/dL
same,CARBON DIOXIDE,[2],35.33 mmol/L
same,CHLORIDE,[2],100.6 MEQ/L
same,CHOLESTEROL,[2],75 mg/dL
same,CREATINE PHOSPHOKINASE,[2],303.83 u/L
same,CREATININE,[2],0.16 mg/dL
same,GLUCOSE,[2],135.83 mg/dL
same,LACTATE DEHYDROGENASE,[2],137.17 u/L
same,LIPASE,[2],9.2 u/L
same,PHOSPHORUS,[2],10.42 mg/dL
same,POTASSIUM,[2],5.9 MEQ/L
same,SODIUM,[2],143.7 MEQ/L
same,TOTAL BILIRUBIN,[2],0.18 mg/dL
same,TOTAL PROTEIN,[2],6.42 G/DL
same,URIC ACID,[2],0.78 mg/dL
same,ABSOLUTE BASOPHIL,[3],0 CELLS/uL
same,ABSOLUTE EOSINOPHIL,[3],12.33 CELLS/uL
same,ABSOLUTE LYMPHOCYTE,[3],8726.33 CELLS/uL
same,ABSOLUTE MONOCYTE,[3],135.33 CELLS/uL
same,ABSOLUTE SEGMENTED NEUTROPHIL,[3],559.33 CELLS/uL
same,BASOPHIL,[3],0%
same,EOSINOPHIL,[3],0.17%
same,ERYTHROCYTE COUNT,[3],5.5 x10E6/uL
same,HEMATOCRIT,[3],34.02%
same,HEMOGLOBIN,[3],13.12 G/DL
same,LEUKOCYTE COUNT,[3],9.43 x10E3/uL
same,LYMPHOCYTE,[3],92.67%
same,MEAN CORPUSCULAR HEMOGLOBIN,[3],23.85 pg
same,MEAN CORPUSCULAR HEMOGLOBIN CONCENTRATION,[3],38.57 G/DL
same,MEAN CORPUSCULAR VOLUME,[3],61.83 fL
same,MONOCYTE,[3],1.33%
same,NEUTROPHIL,[3],5.83%
same,NUCLEATED RED BLOOD CELLS,[3],0 /100WBC
same,PLATELET COUNT,[3],1308.83 x10E3/uL
same,ALANINE AMINOTRANSFERASE,[3],56 u/L
same,ALBUMIN,[3],3.7 G/DL
same,ALKALINE PHOSPHATASE,[3],281.17 u/L
same,ASPARTATE AMINOTRANSFERASE,[3],78.33 u/L
same,BLOOD UREA NITROGEN,[3],15 mg/dL
same,CARBON DIOXIDE,[3],30.5 mmol/L
same,CHLORIDE,[3],103.33 MEQ/L
same,CHOLESTEROL,[3],63.83 mg/dL
same,CREATINE PHOSPHOKINASE,[3],253.33 u/L
same,CREATININE,[3],0.2 mg/dL
same,GLUCOSE,[3],151.17 mg/dL
same,LACTATE DEHYDROGENASE,[3],89 u/L
same,LIPASE,[3],10.33 u/L
same,PHOSPHORUS,[3],9.7 mg/dL
same,POTASSIUM,[3],5.46 MEQ/L
same,SODIUM,[3],146.28 MEQ/L
same,TOTAL BILIRUBIN,[3],0.12 mg/dL
same,TOTAL PROTEIN,[3],6.07 G/DL
same,URIC ACID,[3],0.65 mg/dL
same,ABSOLUTE BASOPHIL,[4],0 CELLS/uL
same,ABSOLUTE EOSINOPHIL,[4],0 CELLS/uL
same,ABSOLUTE LYMPHOCYTE,[4],14529.5 CELLS/uL
same,ABSOLUTE MONOCYTE,[4],274 CELLS/uL
same,ABSOLUTE SEGMENTED NEUTROPHIL,[4],1013.17 CELLS/uL
same,BASOPHIL,[4],0%
same,EOSINOPHIL,[4],0%
same,ERYTHROCYTE COUNT,[4],5.55 x10E6/uL
same,HEMATOCRIT,[4],35.25%
same,HEMOGLOBIN,[4],13.98 G/DL
same,LEUKOCYTE COUNT,[4],15.82 x10E3/uL
same,LYMPHOCYTE,[4],91.67%
same,MEAN CORPUSCULAR HEMOGLOBIN,[4],25.2 pg
same,MEAN CORPUSCULAR HEMOGLOBIN CONCENTRATION,[4],39.7 G/DL
same,MEAN CORPUSCULAR VOLUME,[4],63.53 fL
same,MONOCYTE,[4],1.67%
same,NEUTROPHIL,[4],6.67%
same,NUCLEATED RED BLOOD CELLS,[4],0 /100WBC
same,PLATELET COUNT,[4],1167.33 x10E3/uL
same,ALANINE AMINOTRANSFERASE,[4],46.17 u/L
same,ALBUMIN,[4],3.8 G/DL
same,ALKALINE PHOSPHATASE,[4],266.8 u/L
same,ASPARTATE AMINOTRANSFERASE,[4],66.67 u/L
same,BLOOD UREA NITROGEN,[4],13 mg/dL
same,CARBON DIOXIDE,[4],32.5 mmol/L
same,CHLORIDE,[4],100.2 MEQ/L
same,CHOLESTEROL,[4],68.67 mg/dL
same,CREATINE PHOSPHOKINASE,[4],231.17 u/L
same,CREATININE,[4],0.44 mg/dL
same,GLUCOSE,[4],143.67 mg/dL
same,LACTATE DEHYDROGENASE,[4],122.67 u/L
same,LIPASE,[4],8 u/L
same,PHOSPHORUS,[4],8.67 mg/dL
same,POTASSIUM,[4],6.2 MEQ/L
same,SODIUM,[4],141.52 MEQ/L
same,TOTAL BILIRUBIN,[4],0.18 mg/dL
same,TOTAL PROTEIN,[4],5.57 G/DL
same,URIC ACID,[4],1.13 mg/dL
same,ABSOLUTE BASOPHIL,[5],0 CELLS/uL
same,ABSOLUTE EOSINOPHIL,[5],88.33 CELLS/uL
same,ABSOLUTE LYMPHOCYTE,[5],10357.5 CELLS/uL
same,ABSOLUTE MONOCYTE,[5],213 CELLS/uL
same,ABSOLUTE SEGMENTED NEUTROPHIL,[5],574.5 CELLS/uL
same,BASOPHIL,[5],0%
same,EOSINOPHIL,[5],1%
same,ERYTHROCYTE COUNT,[5],5.67 x10E6/uL
same,HEMATOCRIT,[5],35.32%
same,HEMOGLOBIN,[5],13.55 G/DL
same,LEUKOCYTE COUNT,[5],11.23 x10E3/uL
same,LYMPHOCYTE,[5],91.5%
same,MEAN CORPUSCULAR HEMOGLOBIN,[5],23.88 pg
same,MEAN CORPUSCULAR HEMOGLOBIN CONCENTRATION,[5],38.38 G/DL
same,MEAN CORPUSCULAR VOLUME,[5],62.35 fL
same,MONOCYTE,[5],1.83%
same,NEUTROPHIL,[5],5.67%
same,NUCLEATED RED BLOOD CELLS,[5],0 /100WBC
same,PLATELET COUNT,[5],1370 x10E3/uL
